Data reported in a melting point compilation (Tetko et al.; mined from patent text by program, amines drawn as free bases though some values may be those of a salt).
Non-standard residues stand in square brackets, D forms with d. Residues, ends and D or L forms follow the SMILES beside them. *: point of attachment. Tic = O=C(O)[C@@H]1Cc2ccccc2CN1; Abu = CC[C@H](N)C(=O)O; NHBu = CCCCN*

Row | SMILES | melting point [°C]
1 | CC(C)C[C@H](NC(=O)C1(N)CCCCC1)C(=O)NCC(N)=O | 136 to 147
2 | COC(=O)C(C(=O)OC)C(C)(N)C(Cc1ccccc1[N+](=O)[O-])c1ccccc1 (configuration not stated) | 114
3 | CCCCCCCC[C@H]1C[C@H]1CCCCCCCC(=O)NC(Cc1ccccc1)Cc1ccccc1 (relative stereo) | 40 to 45
4 | O=C(O)c1cc2cc(C(F)(F)F)cnc2n1Cc1ccncc1 | 302 to 303
5 | COc1cc2c(c3c1OC(C)(C)C3)C(c1ccnc(-n3c(=O)ccc4ccccc43)c1)=NC(C)(C)C2 | 190 to 191
6 | Cc1cc([C@@H]2CCC(=O)N2)on1 | 90 to 91
7 | Cc1ccccc1C(=O)n1ccc(-c2ccc(C(=O)N3Cc4cccn4Cc4ccccc43)cc2)n1 | 170 to 173
8 | O=C(O)Cc1onc(O)c1Br | 167
9 | CCCc1nc(C#N)c(C#N)[nH]1 | 141 to 144
10 | Cc1cc(C(=O)N2Cc3cccn3Cc3ccccc32)ccc1C1=CC(C)(C)CC(C)(C)C1 | 118 to 120
11 | CC(C)(C)c1cc(CS[C@@H]2CCCC[C@H]2SCc2cc(C(C)(C)C)cc(C(C)(C)C)c2O)c(O)c(C(C)(C)C)c1 (relative stereo) | 104 to 106
12 | O=C(O)c1cnc(Cn2cc(C3c4ccccc4C=Cc4ccccc43)c(=S)[nH]c2=O)s1 | 198 to 200
13 | O=[N+]([O-])c1ccc(NN=C(c2ccc(O)cc2O)c2ccc(O)cc2O)c([N+](=O)[O-])c1 | 240 to 242
14 | CC[C@@H]1NC(=O)C[C@@]1(O)C1CC1 | 87 to 102
15 | C=CCOC(=O)c1ccc(NCCCCCCCCCCCCCCCC)cc1 | 81 to 83
16 | CC(C)[Si](C(C)C)(C(C)C)N1C=C2C=C(Br)OCC3=C2C(=C1)CC3N(C)C (configuration not stated) | 119 to 121
17 | c1ccc2c(c1)C1CC2(CC2CN(CC3CC3)CCO2)c2ccccc21 (configuration not stated) | 88 to 90
18 | O=C(c1cc2cc(Br)ccc2o1)C12CC3CC(CC(C3)C1)C2 | 115 to 117
19 | CC#Cc1cn(C2OC(CO)C(O)C2O)c(=O)nc1N (configuration not stated) | 241 to 243
20 | CN1CN(c2ccccc2)c2ncccc2C1=O | 140 to 141
21 | CC[C@H](C)[C@H](NC(=O)[C@H](Cc1ccc(O)cc1)NC(=O)OC(C)(C)C)C(=O)NCCCBr | 96 to 100
22 | Cc1ccc(-n2cc(-c3cccn4nc(Nc5ccc(C6CCNCC6)cc5)nc34)cn2)cc1 | 216 to 218

Row | SMILES | melting point [°C]
23 | O=C(CNC1=Nc2cccc3cccc1c23)NCCCn1ccnc1 | 145 to 146
24 | COc1ccc(CSc2ccc(S(=O)(=O)N=CN(C)C)s2)cc1 | 92 to 101
25 | Oc1cccc2c1Oc1ccccc1C21CCN(CC=CCl)CC1 | 153 to 155
26 | COc1cc(C)nc(NC(=O)NS(=O)(=O)c2c(Br)csc2C(=O)c2cccs2)n1 | 106
27 | COc1ccc(/C=C/C2=CCN(Cc3c[nH]c4ncccc34)CC2)cc1 | 201 to 204
28 | CN(C)Cc1cccc(OCCCNc2nc(Cc3ccccc3)n[nH]2)c1 | 140 to 141
29 | c1ccc2c(c1)CCC1(CCOCC1)NC2 | 76 to 78
30 | Fc1ccccc1-c1nc(N2CCNCC2)nc2ccccc12 | 132 to 133
31 | O=CNC1CCCc2sc(Br)cc21 (configuration not stated) | 104 to 108
32 | O=C1CC2(CCCC2)CC(=O)N1CCCCN(c1ccncc1)n1c2ccccc2c2ccccc21 | 90 to 92
33 | Nc1nc(NC2CCCC2)c2ncn(C3C=CC(CO)C3)c2n1 (configuration not stated) | 143 to 146
34 | COc1cc2c(cc1OC)CCN(CCCN(C)C1CCc3cc(OC)c(OC)cc3C1)CC2 (configuration not stated) | 92 to 93
35 | OC1Cc2cccc(Br)c2C1 (configuration not stated) | 80
36 | CC(C)c1nc2c(nc1C(C)C)-c1c(c(-c3ccc(C(=O)O)cc3)nn1Cc1cccnc1)CC2 | 204 to 206
37 | CNC(=O)CNC(=O)CN1CCCC1=O | 139 to 140
38 | CC(C)C(=N)Nc1ccccc1N1CCOCC1 | 138
39 | O=C1CCc2c(-c3ccc(F)cc3)sc(-c3ccncc3)c21 | 155 to 157
40 | Fc1cccc2c1CN(C1=NCCO1)C2 | 125 to 129
41 | O=C(N[C@@H](Cc1ccccc1)C(=O)NC(O)C(=O)O)OCc1ccccc1 (some centres not stated) | 117 to 127
42 | Cc1ccc(C(CCN2CCCC2)c2ncc[nH]2)cc1 (configuration not stated) | 125 to 127
43 | CCCCCCCCCCCCCCN(C(=O)CCCCCCCCCCC)C1(N)OC(CO)C(O)C(O)C1C(=O)C(N)C(=O)C(N)CO (configuration not stated) | 141 to 143

Second part, the compound after the results:

Row | melting point [°C] | SMILES
44 | 88 to 90 | CCCCCCC(=N)NC(=S)Nc1cc(C(F)(F)F)ccc1Cl
45 | 223 to 224 | CC1CC(=O)NN=C1c1ccc(NC(=O)OC(C)C2CC2)cc1 (configuration not stated)
46 | 138 to 140 | CCOC(=O)c1cn(C)c2cc(C(C)(C)C)ccc2c1=O
47 | 156 to 158 | COc1cc(C(C)O)c(O)cc1OCCCN1CCC(c2noc3cc(F)ccc23)CC1 (configuration not stated)
48 | 304 to 306 | CNC(=O)[C@H]1CN(c2ccc3c(c2)oc(=O)n3C)C(=O)O1
49 | 223 to 226 | O=C(O)c1cc(=O)n(Cc2ccccc2S(=O)(=O)O)[nH]1
50 | 132 to 137 | Clc1ccc2ncc(Br)n2n1
51 | 135 to 136 | O=C1c2c(ccc3c2OCCO3)S(=O)(=O)N1CCCCBr
52 | 140 to 141 | Clc1cnc2c(-c3ccccc3)nc(Cl)nc2c1
53 | 120 to 135 | Cc1oc2ccccc2c(=O)c1C(=O)O
54 | 124 to 127 | CN(C)c1cccc(-n2c(=O)c(CCCc3ccncc3)cc3cccnc32)c1
55 | 51 to 52 | CCOC(=O)c1ccc(CCC(=O)CO)cc1
56 | 63 to 65.5 | CCCc1cc(=O)on1C(=O)c1ccc(Cl)cc1Cl
57 | 214 to 215 | Cc1oc(C=Cc2cccc(Cl)c2)nc1CC(=O)O
58 | 105 to 106 | O=C(c1cnc(Cc2ccc(Cl)cc2)[nH]1)N1CCC(c2ccccc2)(c2ccccc2)CC1
59 | 110 | CCOc1cc(NC(C)=O)c([N+](=O)[O-])cc1C(=O)OC
60 | 75 to 77 | O=C1OCN(C(=O)OCc2ccccc2)[C@H]1CCCl
61 | 152 to 153 | CNc1ccc(Cl)cc1-c1nnc(C(F)(F)F)n1CC(=O)N1CCOCC1
62 | 168 to 169 | CN(C)C(=O)c1c(-c2ccc3ccccc3c2)ccc2ccccc12
63 | 133 to 135 | CC1Nc2cc(Br)ccc2NC1=O (configuration not stated)

Row | melting point [°C] | SMILES
64 | 198 to 202 | CNC(=O)c1cc(C(=O)NOCC2CC2)c(Nc2ccc(I)cc2C)c(F)c1F
65 | 148 to 150 | COc1ccc(/C=C/S(=O)(=O)CS(=O)(=O)/C=C/c2ccc(OC)c(O)c2)cc1N
66 | 183 to 185 | COc1cccc(-c2nn(Cc3ccccc3)c3ncnc(O)c23)c1
67 | 185 to 188 | CCOc1ccc(C(=O)O)c(Cl)n1
68 | 85 | COc1ccc(OC)c(NC(=O)Cc2ccccc2)c1
69 | 109 to 111 | O=C(c1ccc(Cl)cc1)n1cc(Cc2cc(=O)n(C3CCCCC3)[nH]2)c2ccccc21
70 | 320 | N#Cc1c(N2CCN(C(=O)c3cccs3)CC2)c2cccnc2[nH]c1=O
71 | 72 to 73 | CCC1(C)CC(=O)C(C(=O)Nc2cc(C(F)(F)F)cc(C(F)(F)F)c2)C(=O)C1 (configuration not stated)
72 | 145 to 147 | CN1CCCC1=NC(=O)Nc1cccc(C#N)c1
73 | 198 to 200 | COc1cc2c(Nc3ccc(Sc4nccn4C)c(Cl)c3)c(C#N)cnc2cc1NCCCN(C)C
74 | 123 to 127 | CCn1cc(C(=O)NCc2ccc(Cl)cc2)c(=O)c2cc(CN(C)C[C@@H](O)c3ccco3)sc21
75 | 209 to 210 | CCc1c(S(=O)(=O)c2ccc(=O)[nH]n2)oc2ccc(Cl)cc12
76 | 255 to 258 | Cc1nnc2ccc(-c3cccc(NC(=O)C4CC4)c3)nn12
77 | 188 to 190 | NC(=O)c1cc(-c2ccc(OC(F)(F)F)cc2)c2c3c(ccc2c1)OCO3
78 | 73 to 74.5 | O=C1c2ccccc2CN1CCCSc1ccncc1
79 | 73 to 76 | CCNC(=O)c1ccccc1C(F)(F)F
80 | 162 to 163 | CS(=O)(=O)CC(=O)c1ccc(NS(C)(=O)=O)c(Oc2ccc(F)cc2F)c1
81 | 272 to 274 | O=C(NC1CC1)c1ccc2c(=O)nc(-c3ccccn3)sc2c1
82 | 137 to 140 | CC(=O)ONc1nc(CC(=O)Nc2cccc(C(F)(F)F)c2)cs1
83 | 129 to 131 | CC(C)(C)C(=O)Oc1ccc(-c2nnn(CCCCC(=O)O)n2)cc1

Row | melting point [°C] | SMILES
84 | 120 to 122 | CNCCc1cccc(N2C(=O)N(c3ccc(Cl)cc3Cl)Cc3cnc(Nc4ccccc4)nc32)c1
85 | 254 to 256 | COc1ccc(Cn2c(=O)[nH]c3cc(Cl)ccc3c2=O)cc1
86 | 113 to 115 | CCc1cn(C2CC(O)C(CCCO)O2)c(=O)[nH]c1=O (configuration not stated)
87 | 130 to 131 | COc1ccc(CCCN2C=CC=C3C2=Nc2cc(C)ccc2S(=O)(=O)N3C)cc1
88 | 98 to 99 | CCCn1nc(CO)cc1OCc1ccc2ccccc2n1
89 | 105 to 110 | CCCCNC(=O)[C@@H]1Cc2ccccc2CN1C(=O)[C@@H](N)CC (H-[Abu]-[Tic]-NHBu)
90 | 122 to 124 | CCN(C)c1ccc(C(=O)c2ccc(N(C)CC)cc2)cc1
91 | 226 | CCn1c(=O)c2c(nc(/C=C/c3cc(OC)c(O)c(OC)c3)n2C)n(CC)c1=O
92 | 103 | CSC(=N)c1cc(Oc2ccc(C(F)(F)F)cc2Cl)ccc1[N+](=O)[O-]
93 | 169 to 171 | COc1ccc(Cn2nc(COC(C)(C)C(=O)O)c3ccccc32)cc1
94 | 68 to 69.9 | CCOP(=O)(OCC)c1c(-c2c(OC)ccc3ccccc23)cc2c(c1C)COC2
95 | 210 to 211 | CC(=O)Nc1nc(CCc2ccc(CO)cc2)c(Cc2ccc(S(C)(=O)=O)cc2)s1
96 | 55 to 56 | CCCCCCCCCCCCCCCCC12CCC3=C(CCc4cc(OC)ccc43)C1=CCC2=O (configuration not stated)
97 | 136 to 138 | CN(C)C(=S)SCC(c1cccc2ccccc12)[N+](=O)[O-] (configuration not stated)
98 | 113 to 115 | CC(C)c1cnc(NC(=O)Nc2cccc(N)c2)s1
99 | 134 to 137 | CCCCC1Oc2ccc(NC(C)=O)cc2C1O (configuration not stated)
100 | 205 to 208 | C=CCNc1c(F)cc2c(=O)c(C(=O)O)cn(-c3nc(N)c(F)cc3F)c2c1Cl
101 | 118 to 120 | CCOC(=O)/C=C/c1cc(-c2ncc(C(F)(F)F)cc2Cl)ccc1Cl
102 | 169 to 170 | COC(=O)c1ccc(NC(=O)N(C)C)cc1
